The values that follow come from patent US12686687B2, “Compounds and uses thereof” (Foghorn Therapeutics Inc., priority 2019, dated 2026).

The experiment has as its target T1, Nanoluciferase-BRD9 fusion protein (3×FLAG-NLuc-BRD9) in SYO-1 cells (Homo sapiens, UniProt Q9H8M2).
T1 construct: expressed in transfected cells; host or cells: SYO-1
T1 sequence (Q9H8M2 1-597): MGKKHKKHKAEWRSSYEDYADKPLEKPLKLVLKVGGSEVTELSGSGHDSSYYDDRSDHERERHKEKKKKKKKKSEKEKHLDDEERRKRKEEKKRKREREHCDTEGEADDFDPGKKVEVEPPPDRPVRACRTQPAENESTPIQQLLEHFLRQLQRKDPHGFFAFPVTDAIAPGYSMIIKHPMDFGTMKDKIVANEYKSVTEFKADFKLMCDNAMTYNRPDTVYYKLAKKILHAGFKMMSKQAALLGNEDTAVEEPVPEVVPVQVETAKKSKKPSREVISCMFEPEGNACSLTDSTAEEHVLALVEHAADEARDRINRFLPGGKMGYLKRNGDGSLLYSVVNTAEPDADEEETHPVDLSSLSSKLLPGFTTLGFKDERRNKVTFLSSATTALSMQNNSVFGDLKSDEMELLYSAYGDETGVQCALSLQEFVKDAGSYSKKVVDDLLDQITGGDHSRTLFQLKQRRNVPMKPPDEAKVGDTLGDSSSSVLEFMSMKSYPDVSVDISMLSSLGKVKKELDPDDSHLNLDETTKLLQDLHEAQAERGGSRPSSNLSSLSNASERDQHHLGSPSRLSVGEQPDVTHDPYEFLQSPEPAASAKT
In words: SYO1 BRD9 NanoLuc degradation assay. It counts as cell-based. As to conditions: Table 6C; SYO-1 cells expressing 3×FLAG-NLuc-BRD9, 6 hours incubation, 1 μM top dose; read-out: SYO1 BRD9-NanoLuc degradation IC50. The method, boiled down: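 Stable SYO-1 line expressing 3×FLAG-NLuc-BRD9 was seeded at 8000 cells/well, then treated next day for 6 h with 10-point 3-fold dilutions (top 1 μM final). Nano-Glo luminescence was read. % inhibition was normalised to DMSO (high control) and 1 μM reference BRD9 degrader (low control).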
Regarding `COc1cc(-c2cn(C)c(=O)c3cc(C(=O)N[C@@H]4CCN(c5ccc6c(c5)C(=O)N(C5CCC(=O)NC5=O)C6)CC4(F)F)sc23)cc(OC)c1CN(C)C` (some centres unmarked) [Compound D156], the DC50 is under 10 nM.
The value for `CCc1cc(-c2cn(C)c(=O)c3cc(C(=O)NC4CCN(C5CCN(c6ccc7c(c6)C(=O)N(C6CCC(=O)NC6=O)C7)CC5)CC4(F)F)sc23)cc(OC)c1CN(C)C` (centres unmarked) [Compound D157] was under 10 nM; that for `COc1cc(-c2c(C)n(C)c(=O)c3ccsc23)cc(OC)c1CN1CCC2(CC1)CN(c1ccc3c(c1)C(=O)N(C1CCC(=O)NC1=O)C3)C2` (centres unmarked) [Compound D158] was under 10 nM; that for `COc1cc(-c2cn(C)c(=O)c3cc(C(=O)NC4CCN(CCCCCOc5ccc6c(c5)C(=O)N(C5CCC(=O)NC5=O)C6)CC4(F)F)sc23)cc(OC)c1CN(C)C` (centres unmarked) [Compound D159] was under 10 nM.
The value for `COc1cc(-c2cn(C)c(=O)c3c(C)csc23)cc(OC)c1CN1CCC(CN2CCC3(CC2)CC(Oc2ccc4c(c2)C(=O)N(C2CCC(=O)NC2=O)C4=O)C3)CC1` (centres unmarked) [Compound D160] was under 10 nM.
The value for `COc1cc(-c2cn(C)c(=O)c3c(C)csc23)cc(OC)c1CN1CCC(CN2CCC3(CC2)CN(c2ccc4c(c2)C(=O)N(C2CCC(=O)NC2=O)C4=O)C3)CC1` (centres unmarked) [Compound D161] was under 10 nM; that for `COc1cc(-c2cn(C)c(=O)c3cc(C(=O)N[C@@H]4CCN(C5CCN(c6ccc7c(c6)C(=O)N(C6CCC(=O)NC6=O)C7)CC5)CC4(F)F)sc23)cc(OC)c1CN(C)C` (some centres unmarked) [Compound D162] was under 10 nM; that for `COc1cc(-c2cn(C)c(=O)c3cc(C(=O)NC4CCN(CCCCCOc5ccc6c(c5)CN(C5CCC(=O)NC5=O)C6=O)CC4(F)F)sc23)cc(OC)c1CN(C)C` (centres unmarked) [Compound D163] was under 10 nM.
In the case of `COc1cc(-c2cn(C)c(=O)c3cc(C(=O)NC4CCN(c5ccc6c(c5)CN(C5CCC(=O)NC5=O)C6=O)CC4(F)F)sc23)cc(OC)c1CN(C)C` (centres unmarked) [Compound D164], the DC50 was under 10 nM.
The value for `COc1cc(-c2cn(C)c(=O)c3cc(C(=O)NC4CCN(c5ccc6c(c5)C(=O)N(C5CCC(=O)NC5=O)C6)CC4(F)F)sc23)cc(OC)c1CN(C)C` (centres unmarked) [Compound D165] was under 10 nM; that for `COc1cc(-c2cn(C)c(=O)c3cc(C(=O)N[C@@H]4CCN(CCN5CCN(c6ccc7c(c6)C(=O)N(C6CCC(=O)NC6=O)C7)CC5)CC4(F)F)sc23)cc(OC)c1CN(C)C` (some centres unmarked) [Compound D166] was under 10 nM.
Regarding `COc1cc(-c2cn(C)c(=O)c3cc(C(=O)N[C@H]4CCN(C5CCN(c6ccc7c(c6)C(=O)N(C6CCC(=O)NC6=O)C7)CC5)CC4(F)F)sc23)cc(OC)c1CN(C)C` (some centres unmarked) [Compound D167], the DC50 is under 10 nM.
Then `COc1cc(-c2cn(C)c(=O)c3ccsc23)cc(OC)c1CN1CC(Oc2ccc3c(c2)C(=O)N(C2CCC(=O)NC2=O)C3)C1` (centres unmarked) [Compound D168], with under 10 nM; and `COc1cc(-c2cn(C)c(=O)c3ccsc23)cc(OC)c1CN1CC(Oc2ccc3c(c2)C(=O)N(C2CCC(=O)NC2=O)C3=O)C1` (centres unmarked) [Compound D169], with under 10 nM; and `COc1cc(-c2cn(C)c(=O)c3ccsc23)cc(OC)c1CN1CC(Oc2ccc3c(c2)CN(C2CCC(=O)NC2=O)C3=O)C1` (centres unmarked) [Compound D170], with under 10 nM.
Regarding `COc1cc(-c2c(C)n(C)c(=O)c3cc(C(=O)NC4CCN(CCN5CCN(c6ccc7c(c6)C(=O)N(C6CCC(=O)NC6=O)C7)CC5)CC4(F)F)sc23)cc(OC)c1CN(C)C` (centres unmarked) [Compound D171], the DC50 is over 10 nM.
The value for `COc1cc(-c2c(C)n(C)c(=O)c3cc(C(=O)NC4CCN(C)CC4(F)F)sc23)cc(OC)c1CN1CC(CN2CCC3(CC2)CN(c2ccc4c(c2)C(=O)N(C2CCC(=O)NC2=O)C4)C3)C1` (centres unmarked) [Compound D172] was over 1000 nM; that for `COc1cc(-c2cn(C)c(=O)c3cc(C)sc23)cc(OC)c1CN1CCC(CN2CCC3(CC2)CC(Oc2ccc4c(c2)C(=O)N(C2CCC(=O)NC2=O)C4=O)C3)CC1` (centres unmarked) [Compound D173] was under 10 nM; that for `COc1cc(-c2cn(C)c(=O)c3ccsc23)cc(OC)c1CN1CCC(CN2CCC3(CC2)CC(Oc2ccc4c(c2)C(=O)N(C2CCC(=O)NC2=O)C4)C3)CC1` (centres unmarked) [Compound D174] was under 10 nM.
Then `COc1cc(-c2cn(C)c(=O)c3cc(C(=O)NC4CCN(CCN5CCC6(CC5)CN(c5ccc7c(c5)C(=O)N(C5CCC(=O)NC5=O)C7)C6)CC4(F)F)sc23)cc(OC)c1CN(C)C` (centres unmarked) [Compound D175], with under 10 nM; and `COc1cc(-c2cn(C)c(=O)c3ccsc23)cc(OC)c1CN1CCN(c2ccc3c(c2)C(=O)N(C2CCC(=O)NC2=O)C3)CC12CCC2` (centres unmarked) [Compound D176], with under 10 nM; and `COc1cc(-c2cn(C)c(=O)c3cc(C(=O)NC4CN(c5ccc6c(c5)C(=O)N(C5CCC(=O)NC5=O)C6)CC4(F)F)sc23)cc(OC)c1CN(C)C` (centres unmarked) [Compound D177], with under 10 nM.
Then `COc1cc(-c2cn(C)c(=O)c3ccsc23)cc(OC)c1CN1CCC2(CC1)CN(c1ccc3c(c1)CN(C1CCC(=O)NC1=O)C3=O)C2` (centres unmarked) [Compound D178], with under 10 nM; and `COc1cc(-c2cn(C)c(=O)c3cc(C(=O)NC4CCN(C5CCN(c6ccn7c(=O)n(C8CCC(=O)NC8=O)nc7c6)CC5)CC4(F)F)sc23)cc(OC)c1CN(C)C` (centres unmarked) [Compound D179], with under 10 nM.
In the case of `COc1cc(-c2cn(C)c(=O)c3cc(C(=O)NC4CN(c5ccc6c(c5)CN(C5CCC(=O)NC5=O)C6=O)CC4(F)F)sc23)cc(OC)c1CN(C)C` (centres unmarked) [Compound D180], the DC50 is under 10 nM.
Consider `COc1cc(-c2cn(C)c(=O)c3cc(C(=O)NC4CN(C5CCN(c6ccc7c(c6)CN(C6CCC(=O)NC6=O)C7=O)CC5)CC4(F)F)sc23)cc(OC)c1CN(C)C` (centres unmarked) [Compound D181], for which the DC50 is under 10 nM.
The value for `COc1cc(-c2cn(C)c(=O)c3cc(C(=O)NC4CN(C5CCN(c6ccc7c(c6)C(=O)N(C6CCC(=O)NC6=O)C7)CC5)CC4(F)F)sc23)cc(OC)c1CN(C)C` (centres unmarked) [Compound D182] was under 10 nM; that for `COc1cc(-c2cn(C)c(=O)c3ccsc23)cc(OC)c1CN1CCC2(CC1)CN(c1ccc3c(c1)C(=O)N(C1CCC(=O)NC1=O)C3=O)C2` (centres unmarked) [Compound D183] was under 10 nM.
The value for `COc1cc(-c2cn(C)c(=O)c3cc(C)sc23)cc(OC)c1CN1CCC(CN2CCC3(CC2)CN(c2ccc4c(c2)C(=O)N(C2CCC(=O)NC2=O)C4=O)C3)CC1` (centres unmarked) [Compound D184] was under 10 nM; that for `COc1cc(-c2cn(C)c(=O)c3ccsc23)cc(OC)c1CN1CCC(CN2CCC3(CC2)CN(c2ccc4c(c2)C(=O)N(C2CCC(=O)NC2=O)C4=O)C3)CC1` (centres unmarked) [Compound D185] was under 10 nM.
The value for `COc1cc(-c2cn(C)c(=O)c3ccsc23)cc(OC)c1CN1CCC2(CC1)CN(c1ccc3c(c1)C(=O)N(C1CCC(=O)NC1=O)C3)C2` (centres unmarked) [Compound D186] was under 10 nM; that for `COc1cc(-c2cn(C)c(=O)c3cc(C(=O)NC4CN(C5CCN(c6ccc7c(c6)C(=O)N(C6CCC(=O)NC6=O)C7=O)CC5)CC4(F)F)sc23)cc(OC)c1CN(C)C` (centres unmarked) [Compound D187] was under 10 nM.
For `COc1cc(-c2cn(C)c(=O)c3cc(C(=O)NC4CCN(C)CC4(F)F)sc23)cc(OC)c1CN1CC(CN2CCC3(CC2)CN(c2ccc4c(c2)C(=O)N(C2CCC(=O)NC2=O)C4)C3)C1` (centres unmarked) [Compound D188], the DC50 was under 10 nM.
The value for `COc1cc(-c2cn(C)c(=O)c3ccsc23)cc(OC)c1CN1CCC(CN2CCC3(CC2)CC(Oc2ccc4c(c2)C(=O)N(C2CCC(=O)NC2=O)C4=O)C3)CC1` (centres unmarked) [Compound D189] was under 10 nM; that for `COc1cc(-c2cn(C)c(=O)c3cc(C(=O)NC4CN(c5ccc6c(c5)C(=O)N(C5CCC(=O)NC5=O)C6=O)CC4(F)F)sc23)cc(OC)c1CN(C)C` (centres unmarked) [Compound D190] was under 10 nM; that for `COc1cc(-c2cn(C)c(=O)c3cc(C(=O)NC4CCN(C5CN(c6ccc7c(c6)C(=O)N(C6CCC(=O)NC6=O)C7=O)C5)CC4(F)F)sc23)cc(OC)c1CN(C)C` (centres unmarked) [Compound D191] was under 10 nM.
The value for `COc1cc(-c2cn(C)c(=O)c3cc(C(=O)NC4CCN(c5ccc6c(c5)C(=O)N(C5CCC(=O)NC5=O)C6=O)CC4(F)F)sc23)cc(OC)c1CN(C)C` (centres unmarked) [Compound D192] was under 10 nM; that for `COc1cc(-c2cn(C)c(=O)c3sccc23)cc(OC)c1CN1CCC(CN2CCC3(CC2)CC(Oc2ccc4c(c2)CN(C2CCC(=O)NC2=O)C4=O)C3)CC1` (centres unmarked) [Compound D193] was under 10 nM.
The value for `COc1cc(-c2cn(C)c(=O)c3ccsc23)cc(OC)c1CN1CCN(c2ccc3c(c2)C(=O)N(C2CCC(=O)NC2=O)C3)CC1` (centres unmarked) [Compound D194] was under 10 nM; that for `COc1cc(-c2cn(C)c(=O)c3cc(C(=O)NC4CCN(CCN5CCC(c6ccc7c(c6)CN(C6CCC(=O)NC6=O)C7=O)CC5)CC4(F)F)sc23)cc(OC)c1CN(C)C` (centres unmarked) [Compound D195] was under 10 nM.
Regarding `COc1cc(-c2cn(C)c(=O)c3cc(C(=O)NC4CCN(CCN5CCN(c6ccc7c(c6)CN(C6CCC(=O)NC6=O)C7=O)CC5)CC4(F)F)sc23)cc(OC)c1CN(C)C` (centres unmarked) [Compound D196], the DC50 was under 10 nM.
